The values that follow come from paper PMC8216263 (Pharmaceutical Biology, 2021).

This series deals with T1, BCRP (Homo sapiens, UniProt Q9UNQ0).
T1 sequence (Q9UNQ0 1-655): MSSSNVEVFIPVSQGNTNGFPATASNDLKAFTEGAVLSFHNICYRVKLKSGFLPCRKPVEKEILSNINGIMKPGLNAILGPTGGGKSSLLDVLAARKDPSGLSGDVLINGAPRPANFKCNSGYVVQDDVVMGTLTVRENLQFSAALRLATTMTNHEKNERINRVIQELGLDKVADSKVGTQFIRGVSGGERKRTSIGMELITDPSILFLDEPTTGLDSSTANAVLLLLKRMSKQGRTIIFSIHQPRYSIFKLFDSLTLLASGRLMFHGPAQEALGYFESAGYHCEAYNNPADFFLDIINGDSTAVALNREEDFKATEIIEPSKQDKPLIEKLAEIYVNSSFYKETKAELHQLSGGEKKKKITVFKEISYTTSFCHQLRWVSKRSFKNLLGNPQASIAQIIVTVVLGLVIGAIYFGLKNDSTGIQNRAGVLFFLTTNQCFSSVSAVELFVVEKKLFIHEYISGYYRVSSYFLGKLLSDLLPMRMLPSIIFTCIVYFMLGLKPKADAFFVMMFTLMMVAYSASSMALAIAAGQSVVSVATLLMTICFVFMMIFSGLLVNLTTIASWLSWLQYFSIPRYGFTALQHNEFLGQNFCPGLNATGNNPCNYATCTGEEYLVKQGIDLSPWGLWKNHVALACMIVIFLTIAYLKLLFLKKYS
Briefly: Inhibition of BCRP-mediated lucifer yellow efflux in MDCK-BCRP cells. It counts as cell-based. Conditions: for inhibitory effect on efflux of BCRP-mediated lucifer yellow: GA 50–5000 μg/L, PCA 10–1000 μg/L. The source says: The human multidrug resistance protein (MDR)1-transfected Madin–Darby Canine Kidney (MDCK) cells, human breast cancer resistance protein (BCRP)-transfected MDCK cells, human organic anion transporter (OAT)1-transfected MDCK cells, OAT3-transfected second portion of proximal tubule (S2) cells, human organic cation transporter (OCT)2-transfected S2 cells, human organic anion transporting polypeptide (OATP)1B1-transfected human embryonic kidney 293 (HEK293) cells and their MOCK cells were kindly provided by Japan Fuji Biomedical Co., Ltd. (Osaka, Japan). Cells were cultured in DMEM supplemented with 10% FBS, 100 units/mL penicillin and 100 […]. All cells were incubated in a humidified atmosphere of 95% air and 5% CO2 at 37 °C. A solution of 0.25% trypsin-EDTA was used to detach the cells from flasks. Cell culture flasks, 24-well cell culture plates, and transwell polycarbonate inserts (12 mm diameter, 0.4 μm pore size) were purchased from Corning Co-star Corp. (Bedford, MA).
Inhibitory effects of GA and PCA on efflux transporters MDR1 and BCRP were investigated with the fluorogenic substrates rhodamine 123 (10 µM) and lucifer yellow (10 µM), respectively. The positive control inhibitors of MDR1 and BCRP were verapamil (10 µM) and cyclosporine (20 µM), respectively. The efflux experiments were adapted from previously reported methods with minor modifications (Reznicek et al. [2017]). Briefly, MDCK-MDR1, MDCK-BCRP and MDCK-mock cells were trypsinized and uniformly suspended in the designated volume of HBSS to provide a density of 4.0 × 10^5 cells/mL. For 0.5 mL of cell suspension and 1.5 mL of HBSS buffer medium were added in the apical and basolateral compartments of 12-well Transwell plates. After cultivation for 7 d, cells were washed twice and equilibrated for 30 min at 37 °C with the pre-warmed HBSS buffer. […] Fluorescence was measured at 485 nm (excitation) and 546 nm (emission) for rhodamine 123, and 425 nm (excitation) and 528 nm (emission) for Lucifer yellow. […]

SMILES strings stand for the structures.

Turning to `O=C(O)c1ccc(O)c(O)c1` [PCA, protocatechuic acid], the “inhibitory effect on efflux of BCRP-mediated lucifer yellow” value was “no significant inhibitory effect”. Further, for the setting “relatively high concentrations”, the “efflux of lucifer yellow compared with the control” value was “significant increase”.
As to `O=C(O)c1cc(O)c(O)c(O)c1` [GA, gallic acid], the “inhibitory effect on efflux of BCRP-mediated lucifer yellow” value was “no significant inhibitory effect”.
